Data published in patent publication US12326385B2, “Cell-permeable fluorogenic fluorophores” (MAX-PLANCK-GESELLSCHAFT ZUR FÖRDERUNG DER WISSENSCHAFTEN E. …, priority 2018, dated 2025).
Marks after values point to notes of the source that are not given here.

How the values were obtained:
[1] = UV-Vis and fluorescence spectroscopy of free dye or probe in buffer or SDS; assay type: physicochemical
Experimental: UV-Vis and Fluorescence Spectroscopy
Spectroscopy was performed using 96-well plate (Thermo Fisher) with optical bottom. All measurements were taken at ambient temperature (25±2° C.). Absorption and fluorescence spectra were recorded on Spark® microplate reader (Tecan). Maximum absorption wavelength (λabs), and maximum emission wavelength (λem) were taken in 10 mM HEPES, pH 7.3 buffer unless otherwise noted; reported values for ε are averages (n=3). Normalized spectra are shown for clarity.
(§1) SDS (10% in 10 mM HEPES) was added with dilution of 100 folds as a control group. Absorbance and fluorescence measurements were performed in 96-well plate (Thermos Fisher) with optical bottom.

[2] = UV absorbance spectra in water-dioxane mixtures (D50); assay type: physicochemical; conditions: dioxane-H2O mixture (v/v: 90/10-10/90), dielectric constant at half-maximal zwitterion absorbance
Source text: The inventors' efforts to improve the permeability and fluorogenicity of rhodamine derivatives for live-cell imaging focused on increasing the propensity of rhodamines to form the spirocyclic, non-fluorescent form without affecting the spectroscopic properties of the parental molecule. The inventors initially considered replacing the carboxylic acid responsible for formation of the spirolactone with an amide. However, such rhodamine derivatives have been reported to strongly favor spirolactams at physiological pH, making them unsuitable for live-cell imaging. The inventors therefore attempted to destabilize the spirolactam by attaching different electron-withdrawing groups to the underlying amides. Specifically, the inventors converted 6-carboxytetramethylrhodamine (6-TAMRA), a widely used fluorophore with good photophysical properties, into the corresponding acyl cyanamide (132), acyl sulfonamide (133) and acyl sulfamide (134 and 135), (FIG. 32c). The acyl cyanamide of rhodamine B was previously reported to exist as a fluorescent zwitterion at physiological pH. Acyl sulfonamides and acyl sulfamides are used in medicinal chemistry as anionic pharmacophores. Amides 132-135 were prepared in three simple steps from commercially available 6-TAMRA (FIG. 32c). To investigate the propensity of these amides to form the corresponding spirolactams, the inventors measured their absorbance spectra in water-dioxane mixtures with […]. The equilibrium between the zwitterionic and spirocyclic form can then be characterized by the D50 value, which is defined as the dielectric constant at which absorbance of the fluorescent zwitterion is decreased by half compared to the highest recorded absorbance value measured in dioxane-water mixtures. […] In comparison, the D50 value of TAMRA is around 10 showing that in aqueous solution TAMRA exists predominantly in its open form and TAMRA-based probes are usually not fluorogenic. The measured D50 values of amides 132-135 ranged from 32 to around 60 (FIG. 32d), which indicates the potential of these fluorophores for the generation of permeable and fluorogenic probes. […] The possibility to tune the equilibrium between the open and closed form of the fluorophore by varying the substituents on the amide is an important feature of this approach.
Measurements of UV Absorbance Spectra in Water-Dioxane Mixtures
Solutions of 5 μM Rhodamine B, RhB-CH3 (201, Z=CH3), RhB-Ben (201, Z=CH2Ph), RhB-CN (201, Z=CN), RhB-SCH3 (115), RhB-SNH2 (116), RhB-SNMe2 (117), RhB-CONH2 (118), WS1-SCF3, (119) WS1-SCH3 (120), WS1-CN (121), WS1-SNH2 (122), WS1-SO (123), WS1-UREA (124) in water-dioxane mixtures containing 10%, 20%, 30%, 40%, 50%, 60%, 70%, 80% and 90% of dioxane (by volume) were prepared. The absorbance spectra were recorded using a Spark® microplate reader (Tecan). The spectra were integrated from 400 to 700 nm for Rhodamine B-based fluorophores and from 350 to 750 nm for WS1-based fluorophores using the software Prism 7. Normalized integrals were plotted against dielectric constant of water-dioxane mixture.

F-actin = test: In vitro absorbance and fluorescence response on binding to actin; assay type: biochemical; conditions: for ε: general actin buffer; for F/F0: ± s.e.m.; for increase in absorbance / increase in fluorescence intensity: upon binding to F-actin, in vitro
F-actin in U2OS cells = test: No-wash live-cell imaging of F-actin; assay type: cell-based
Source text: Fluorescent probes for live-cell imaging of cytoskeletal structures have become important tools in the life sciences. In particular, the far-red, SiR-based probes for F-actin (SiR-actin) and microtubules (SiR-tubulin) have become popular as they are fluorogenic and enable no-wash imaging with little background signal. SiR-actin and SiR-tubulin are based on SiR linked to the F-actin-binder jasplakinolide and microtubule-binder docetaxel, respectively. Binding to their targets shifts for both probes the equilibrium between the cell-permeable spirolactone and the fluorescent zwitterion towards the fluorescent form. To generate fluorescent stains for F-actin and microtubule in different colors, the inventors coupled jasplakinolide and docetaxel to 6-TAMRA and its N,N-dimethylsulfamide derivative (probes 169 and 172, named MaP555-actin and MaP555-tubulin in the following). […] The specificity of MaP555-actin and MaP555-tubulin was further confirmed by co-staining with SiR-actin and SiR-tubulin. […] Similarly, binding of MaP555-tubulin to microtubules caused a high increase in absorbance (5.8-fold) and fluorescence (11-fold).
In addition, the inventors coupled the acyl sulfonamide of carbopyronine to jasplakinolide, yielding the actin probe MaP618-actin (171).

SNAP-Halo-tag = test: Increase in absorbance and fluorescence on binding to SNAP-HaloTag protein in vitro; assay type: biochemical; conditions: binding with SNAP-Halo-tag
Experimental: Measurement of Increase in Absorbance and Fluorescence.
SNAP-HaloTag protein were used as a 85 μM-200 μM solution in 75 mM NaCl, 50 mM TRIS-HCl, pH 7.4 with 50% v/v glycerol (TBS-glycerol). SNAPTag and HaloTag based fluorogenic probes were diluted to 1.0-2.0 μM in 10 mM HEPES, pH 7.3. Then an aliquot of SNAPTag/HaloTag protein (1.5-2.0 equiv) was added and the resulting mixture was incubated until consistent absorbance signal was observed (˜60 min).
as §1

[3] = 0.1% SDS in HEPES buffer (pH 7.3)
[4] = 0.2% SDS in general actin buffer
[5] = MaP618-actin, orange fluorescence

Row | SMILES | ε ([1]; HEPES buffer (pH 7.3)) | λabs ([1]; HEPES buffer (pH 7.3)) | λem ([1]; HEPES buffer (pH 7.3)) | D50 [2] | Φ [1, 3] | Φ ([1]; HEPES buffer (pH 7.3)) | further results
1 | CN1CCc2cc3c(cc21)[Si](C)(C)c1cc2c(cc1C31c3cc(C(=O)O)ccc3C(=O)N1C#N)CCN2C [compound 140] | 8,200^a M^−1cm^−1 | 698 nm | 720 nm | >75^d |  |  | 
2 | CN(C)c1ccc2c(c1)Oc1cc(N(C)C)ccc1C21c2cc(C(=O)O)ccc2C(=O)N1S(C)(=O)=O [compound 133] | 89,000^a M^−1cm^−1 | 553 nm | 580 nm | 44^d | 0.46 | 0.43 | 
3 | C/C1=C\CC[C@H](C)OC(=O)C[C@H](c2ccc(O)cc2)NC(=O)[C@@H](Cc2c[nH]c3ccccc23)N(C)C(=O)[C@H](CCCCNC(=O)CCCCCNC(=O)c2ccc3c(c2)C2(c4ccc(N(C)C)cc4C(C)(C)c4cc(N(C)C)ccc42)N(S(C)(=O)=O)C3=O)NC(=O)[C@@H](C)C1 [compound 171] |  |  |  |  |  |  | Φ (F-actin; [4]): 0.71; ε^SDS (F-actin; [4]): 24,000^i M^−1cm^−1; λem (F-actin; [5]): 635 nm; λex (F-actin; [5]): 618 nm; Φ (F-actin; binding with actin): 0.78; ε^protein (F-actin; binding with actin): 61,000 M^−1cm^−1; λabs (F-actin; binding with actin): 618; λem (F-actin; binding with actin): 635; ε (F-actin): 500 M⁻¹ cm⁻¹; fluorogenicity relative to SiR-actin (F-actin; incubation with F-actin): about four times more fluorogenic; F/F0 (F-actin; ratio of fluorescence intensities at 635 nm in the presence and absence of actin): 449 ± 6.8^j; increase in absorbance (F-actin): 122 fold; increase in fluorescence intensity (F-actin): 449 fold; live-cell staining of F-actin (F-actin in U2OS cells): clearly reveal F-actin structures
4 | C/C1=C\CC[C@H](C)OC(=O)C[C@H](c2ccc(O)cc2)NC(=O)[C@@H](Cc2c[nH]c3ccccc23)N(C)C(=O)[C@H](CCCCNC(=O)CCCCCNC(=O)c2ccc3c(c2)C2(c4ccc(N(C)C)cc4Oc4cc(N(C)C)ccc42)N(S(=O)(=O)N(C)C)C3=O)NC(=O)[C@@H](C)C1 [compound 169] |  |  |  |  |  |  | Φ (F-actin; [4]): 0.49; ε^SDS (F-actin; [4]): 103,000 M^−1cm^−1; Φ (F-actin; binding with actin): 0.57; ε^protein (F-actin; binding with actin): 95,000 M^−1cm^−1; λabs (F-actin; binding with actin): 558; λem (F-actin; binding with actin): 580; ε (F-actin): 3,600 M^−1cm^−1; F/F0 (F-actin; ratio of fluorescence intensities at 580 nm in the presence and absence of actin): 107 ± 9.6^m; increase in absorbance (F-actin): 26 fold; increase in fluorescence intensity (F-actin): 107 fold; live-cell staining of F-actin (F-actin in U2OS cells): enabled no-wash, high-contrast staining
5 | CN(C)c1ccc2c(c1)Oc1cc(N(C)C)ccc1C21c2cc(C(=O)O)ccc2C(=O)N1S(N)(=O)=O [compound 134] | 83,000^a M^−1cm^−1 | 552 nm | 580 nm | 57^d | 0.44^a/0.44^c | 0.44^a/0.44^c | 
6 | CN(C)c1ccc2c(-c3cc(C(=O)[O-])ccc3C(=O)O)c3ccc(=[N+](C)C)cc-3oc2c1 [6-TAMRA, 6-carboxytetramethylrhodamine, reference compound] | 84,000^a M^−1cm^−1 | 550 nm | 578 nm | 12^d | 0.39 | 0.43 | D50 ([2]; listed as TAMRA): around 10
7 | CN(C)S(=O)(=O)N1C(=O)c2ccc(C(=O)O)cc2C12c1ccc(N)cc1Oc1cc(N)ccc12 [compound 21] | 74,000^a M^−1cm^−1 | 502 nm | 526 nm | 70^d | 0.69 | 0.68 | D50 ([2]; listed as MaP510): 70
8 | CN(C)c1ccc2c(c1)Oc1cc(N(C)C)ccc1C21c2cc(C(=O)O)ccc2C(=O)N1C#N [compound 132] | 89,000^a M^−1cm^−1 | 552 nm | 580 nm | 32^d | 0.45^a/0.45^c | 0.45^a/0.45^c | 
9 | CN(C)c1ccc2c(c1)Oc1cc(N(C)C)ccc1C21c2cc(C(=O)O)ccc2C(=O)N1S(=O)(=O)N(C)C [compound 135] | 88,000^a M^−1cm^−1 | 553 nm | 580 nm | 58^d | 0.43 | 0.4 | 
10 | CN1CCc2cc3c(cc21)[Si](C)(C)c1cc2c(cc1C31OC(=O)c3ccc(C(=O)O)cc31)CCN2C [compound 35, reference compound] | 104,000^a M^−1cm^−1 | 694 nm | 718 nm | 54^d | 0.16 |  | Φ (SNAP-Halo-tag): 0.17
11 | Cl.N=c1ccc2c(-c3ccccc3C(=O)O)c3ccc(N)cc3oc-2c1 [R110, Rhodamine 110, reference compound] |  |  |  | 15 |  |  | 
